Tests used:
4T1 R4 cells = assay: Cell viability assay, 4T1 R4 cells; assay type: cell-based, mouse; conditions: with 400 nM paclitaxel, 72 hr
Method: (§1) MCF-7, MDA-MB-231, MDA-MB-468, Hs578T, 4T1, and HeLa cell lines stably expressing H2B-mCherry and eGFP-tubulin (kindly provided by Dr. Anthony A. Hyman, Max-Planck-Institute for Molecular Cell Biology and Genetics, Dresden, Germany) were cultured in high-glucose Dulbecco's Modified Eagle Medium (DMEM). SK-BR-3 cells were cultured in McCoy's Modified 5a Medium. Hs578T cells were cultured in high-glucose DMEM supplemented with an additional 0.01 mg/mL bovine insulin. […] All mentioned media were supplemented with 10% fetal bovine serum (Gibco) and 1% Penicillin/Streptomycin (Corning), and cells were incubated at 37° C. in a humidified atmosphere containing 5% CO2. HEK293 cells were cultured in HE300 medium (GMEP incorporated, Japan) and maintained in suspension culture with 125 rpm and 8% CO2.
(§2) The cancer cells were cultured in a 96-well plate at a confluence of 1000-2000 cells/well with indicated drugs for specific days. When the time was up, the culture medium in the plate was aspirated and replaced with a prepared CellTiter-Glo reagent/DMEM mixture (1:1 mix of CellTiter-Glo reagent and serum-supplemented DMEM). After incubation for 10 min, the luminescence (proportional to the number of living cells) was measured with an ELISA plate reader to determine the cell viability.

[1] = test system: HeLa cells expressing H2B-mCherry and eGFP-tubulin; assay: Live-cell imaging of intracellular microtubule distribution; assay type: cell-based
Method: For the microtubule distribution analysis, HeLa cell line stably expressing H2B-mCherry and eGFP-tubulin (a kind gift from Anthony A. Hyman, Max-Planck-Institute for Molecular Cell Biology and Genetics, Dresden, Germany) were treated with KIF2C inhibitors (10 μM DHTP or 10 μM 7S9) during imaging. Live-cell imaging was conducted on a Nikon T1 inverted fluorescence microscope (Nikon) with a 60× oil objective (Nikon), a Prime camera (Photometrics), and 37° C., 5% CO2 heat stage (Live Cell Instrument). Microtubule morphological changes were imaged at 3-min intervals. Images were obtained using ImageJ software processed with Gaussian Blur to remove the noise.

4T1 R8 cells = assay: Cell viability assay, 4T1 R8 cells; assay type: cell-based, mouse; conditions: with 400 nM paclitaxel, 72 hr
Method: as §1, §2

Structure (SMILES): CCN1CCN(C(=O)COc2ccc(/C=c3\sc4n(c3=O)C(c3ccc(Cl)cc3)C(C(=O)OC(C)C)=C(C)N=4)cc2)CC1.O=C(O)/C=C\C(=O)O (stereo not drawn) [7S9 (133), isopropyl (Z)-5-(4-chlorophenyl)-2-(4-(2-(4-ethylpiperazin-1-yl)-2-oxoethoxy)benzylidene)-7-methyl-3-oxo-2,3-dihydro-5H-thiazolo[3,2-a]pyrimidine-6-carboxylate maleate]
- fold increase of cell sensitivity to 7S9 by paclitaxel (4T1 R4 cells): 10.5 fold
- intracellular microtubule distribution phenotype (in words) [1]: puncta formation of tubulins in the cytoplasm
- fold increase of cell sensitivity to 7S9 by paclitaxel (4T1 R8 cells): 8 fold

Source: patent publication US20250129101A1, “Compound, Pharmaceutical Composition Comprising the Same and Method for Treating Cancer Using the Same” (NATIONAL TSING HUA UNIVERSITY, priority 2023, published 2025)
